What was measured:
horny layer = test: Skin conductance (water content of horny layer) after two-week coating on cheeks; type: in vivo, women; set-up: key: conductance meter reading; ≤5 = severe roughness, ≥20 = no roughness; details: Invention Product 1: vaseline and compound 3:1 by weight; two weeks; 20° C., 40% humidity; 5 and smaller = severe roughness, 20 or greater = no substantial roughness
From the text: (§1) Compounds Ia1 -Ia18 prepared respectively in Referential Examples 1, 2 and 3 and following the procedures of these referential examples, compounds Ib1 -Ib5 prepared respectively in Referential Example 4 and following the procedure of the referential example, compounds Id1 -Id5 prepared respectively in Referential Example 5 and following the procedure of the referential example, compounds Ie1 -Ie4 prepared respectively in Referential Examples 6-9, and conventional compounds Ic1 -Ic13, Ie5 -Ie14 and II1 -II12 were used separately. Mixtures (Invention Products 1), each of which had been formulated by mixing vaseline and the compound (I or II) at a weight ratio of 3:1, and vaseline (Comparative Product 1) were evaluated in skin conductance and skin roughness by the following methods.
(§2) Chosen as volunteers in winter were 10 women of 20-50 years of old who had skin roughness on their both cheeks. Different external skin care preparations were coated separately on the left and right cheeks of each volunteer for two weeks. On the following day of the completion of the two-week coating test, tests were conducted with respect to the following properties.
After washing the face with warm water of 37° C., each volunteer was allowed to rest for 20 minutes in a room which was air-conditioned at 20° C. and 40% humidity. The water content of their horny layer was measured by a skin conductance meter (manufactured by IBS Company). A smaller conductance value indicates greater skin roughness. Conductance values of 5 and smaller indicate severe skin roughness. On the contrary, no substantial skin roughness is observed where this value is 20 or greater.

skin roughness = test: Score of skin roughness, visual ranking after two-week coating on cheeks; type: in vivo, women; details: compound 1.0 wt. %, average, 0 = none, 4 = severe
From the text: as §1, §2
Skin roughness was observed visually and ranked in accordance with the following standard. Each score was indicated by an average value.
Score Ranking of skin roughness
0 No skin roughness was observed.
1 Slight skin roughness was observed.
2 Skin roughness was observed.
3 Rather severe skin roughness was observed.
4 Severe skin roughness was observed.
Using separately the compounds used in Example 1, external skin care preparations (emulsified cosmetic preparations) of their corresponding compositions shown below in Table 2 were formulated. Their effects for the improvement of skin roughness were evaluated in the same manner as in Example 1.

[1] = Invention product 2: emulsified cosmetic, glyceryl ether 2.0 wt. %
[2] = Invention product 3: emulsified cosmetic, arginine monocetylphosphate 2.0 wt. %
[3] = Invention product 4: emulsified cosmetic, polyoxyethylene (20) sorbitan stearate 1.0 and sorbitan monostearate 1.0 wt. %

SMILES | Skin conductance (horny layer) | Score of skin roughness (skin roughness; [1]) | Score of skin roughness (skin roughness; [2]) | Score of skin roughness (skin roughness; [3])
CCCCCCCCCCCCCCCCCCOCC(O)CN(CC(C)O)C(=O)CCCCCCCCCCCCCCCCC (stereo not shown) [Compound Ia13] | 13 | 0.5 | 0.7 | 1.1
CCCCCCCCCCCCCCCCOCC(O)CN(C(=O)CCCCCCCCCCCCCCC)C(Cc1c[nH]cn1)C(=O)O (stereo not shown) [Compound Ic12] | 11 | 1.0 | 1.3 | 1.6
CCCCCCCCCCCCCCCCCC(=O)N(CCOP(=O)([O-])OCC[N+](CC)(CC)CC)CC(O)COCCCCCCCCCCCCCC (stereo not shown) [Compound Ie9] | 18 | 0.6 | 0.6 | 1.0
CCCCCCCCCCCCCCCCCCOCC(O)CN(CCCO)C(=O)CCCCCCCCCCCCCCCCC (stereo not shown) [Compound Ia6] | 23 | 0.1 | 0.3 | 0.7
CCCCCCCCCCCCCCCCOCC(O)CN(C(=O)CCCCCCCCCCCCCCC)C(CO)C(=O)O (stereo not shown) [Compound Ic8] | 18 | 0.4 | 0.6 | 0.9
CCCCCCCCCCCCCCCCOCC(O)CN(CCO[C@@H]1O[C@H](CO)[C@@H](O)[C@H](O)[C@H]1NC(C)=O)C(=O)CCCCCCCCCCCCCCC (stereo partly shown) [Compound Ie3] | 31 | 0.3 | 0.4 | 0.7
CCCCCCCCCCCCCCCCOCC(O)CN(CCOCCO)C(=O)CCCCCCCCCCCCCCC (stereo not shown) [Compound Ib1, N-(3-hexadecyloxy-2-hydroxypropyl)-N-2-hydroxyethoxyethylhexadecanamide] | 20 | 0.1 | 0.2 | 0.7
CCCCCCCCCCCCCCCCCCOCC(O)CN(CC(=O)O)CC(O)COCCCCCCCCCC (stereo not shown) [Compound II7] | 10 | 0.5 | 0.8 | 1.1
CCCCCCCCCCCCCCCCCC(=O)N(CC(=O)O)CC(O)COCCCCCCCCCCCCCC (stereo not shown) [Compound Ic2] | 15 | 0.6 | 0.8 | 1.1
CCCCCCCCCCCCCCCCCC(=O)N(CCO)CC(O)CCCCCCCCCC (stereo not shown) [Compound Id4] | 17 | 0.3 | 0.5 | 0.8
CCCCCCCCCCCCCCCCOCC(O)CN(C(=O)CCCCCCCCCCCCCCC)C(C(=O)O)C(C)C (stereo not shown) [Compound Ic7] | 15 | 0.6 | 0.8 | 1.1
CCCCCCCC/C=C\CCCCCCCC(=O)N(CCO)CC(O)CCCCCCCCCCCCCCCC (stereo not shown) [Compound Id5] | 25 | 0.1 | 0.3 | 0.6
CCCCCCCCCCOCC(O)CN(CCOP(=O)(O)OCCNCCc1ccccc1)C(=O)CCCCCCCCC (stereo not shown) [Compound Ie10] | 11 | 1.0 | 1.2 | 1.8
CCCCCCCCCCCCCCCCOCC(O)CN(C(=O)CCCCCCCCCCCCCCC)C(Cc1c[nH]c2ccccc12)C(=O)O (stereo not shown) [Compound Ic13] | 10 | 1.1 | 1.4 | 1.7
CCCCCCCCCCCCCCCCOCC(O)CN(CCOC1O[C@H](CO)[C@@H](O)[C@H](O)[C@H]1O)C(=O)CCCCCCCCCCCCCCC (stereo partly shown) [Compound Ie1, N-(3-hexadecyloxy-2-hydroxypropyl)-N-(2-O-glucopyranosyl)ethylhexadecanamide] | 25 | 0.4 | 0.6 | 0.9
CCCCCCCCCCC(O)CN(CCO)C(=O)CCCCCCCCC (stereo not shown) [Compound Id3] | 13 | 0.5 | 0.8 | 1.1

— patent publication US4985547A, “External skin care preparation” (Kao Corporation, priority 1987, dated 1991)
